This is an account of results in PMC4769319, “Cohesin Releases DNA through Asymmetric ATPase-Driven Ring Opening” (Molecular Cell, 2016).

The experiment addresses T1, Smc1/Smc3 heterodimer with Scc1-C (cohesin) (Saccharomyces cerevisiae, UniProt P32908+P47037, P32908:L1129V, form not given).
T1 construct: N-terminal tags; Sf9 insect cells; fluorescently labelled for MST; with Sister chromatid cohesion protein 1
T1 sequence (P32908 1-1225 L1129V): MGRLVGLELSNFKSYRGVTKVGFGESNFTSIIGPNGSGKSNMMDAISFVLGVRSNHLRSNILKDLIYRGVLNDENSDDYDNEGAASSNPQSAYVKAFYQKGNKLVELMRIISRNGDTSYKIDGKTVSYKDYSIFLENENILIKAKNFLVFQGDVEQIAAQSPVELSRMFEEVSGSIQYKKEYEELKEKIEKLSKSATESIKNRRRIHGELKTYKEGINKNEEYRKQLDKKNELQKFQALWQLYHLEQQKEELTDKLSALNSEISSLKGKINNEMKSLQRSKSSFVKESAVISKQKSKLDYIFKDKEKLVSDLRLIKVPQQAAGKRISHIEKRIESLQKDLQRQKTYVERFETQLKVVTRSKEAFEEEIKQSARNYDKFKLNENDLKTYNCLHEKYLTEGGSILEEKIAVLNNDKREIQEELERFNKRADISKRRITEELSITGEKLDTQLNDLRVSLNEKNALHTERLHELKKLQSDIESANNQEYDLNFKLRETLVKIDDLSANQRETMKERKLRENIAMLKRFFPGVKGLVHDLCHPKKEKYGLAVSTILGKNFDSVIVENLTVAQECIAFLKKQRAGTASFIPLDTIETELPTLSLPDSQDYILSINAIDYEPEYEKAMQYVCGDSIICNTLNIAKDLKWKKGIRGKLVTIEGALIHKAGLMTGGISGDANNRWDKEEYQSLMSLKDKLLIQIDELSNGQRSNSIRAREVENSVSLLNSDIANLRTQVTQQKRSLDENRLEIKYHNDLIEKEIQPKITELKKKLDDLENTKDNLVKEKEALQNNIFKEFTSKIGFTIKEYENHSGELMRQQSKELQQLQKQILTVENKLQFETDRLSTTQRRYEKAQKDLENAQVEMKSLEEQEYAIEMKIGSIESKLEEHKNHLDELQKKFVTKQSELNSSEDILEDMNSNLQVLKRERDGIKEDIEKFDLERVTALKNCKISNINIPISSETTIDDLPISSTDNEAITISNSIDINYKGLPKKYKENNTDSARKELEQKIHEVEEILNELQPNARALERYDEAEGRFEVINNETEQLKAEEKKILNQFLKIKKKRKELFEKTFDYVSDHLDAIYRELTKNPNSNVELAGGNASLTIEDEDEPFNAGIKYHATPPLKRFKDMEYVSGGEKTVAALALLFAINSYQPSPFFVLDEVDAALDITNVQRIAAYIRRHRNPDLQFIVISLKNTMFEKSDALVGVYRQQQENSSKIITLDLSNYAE
T1 sequence (P47037 1-1230): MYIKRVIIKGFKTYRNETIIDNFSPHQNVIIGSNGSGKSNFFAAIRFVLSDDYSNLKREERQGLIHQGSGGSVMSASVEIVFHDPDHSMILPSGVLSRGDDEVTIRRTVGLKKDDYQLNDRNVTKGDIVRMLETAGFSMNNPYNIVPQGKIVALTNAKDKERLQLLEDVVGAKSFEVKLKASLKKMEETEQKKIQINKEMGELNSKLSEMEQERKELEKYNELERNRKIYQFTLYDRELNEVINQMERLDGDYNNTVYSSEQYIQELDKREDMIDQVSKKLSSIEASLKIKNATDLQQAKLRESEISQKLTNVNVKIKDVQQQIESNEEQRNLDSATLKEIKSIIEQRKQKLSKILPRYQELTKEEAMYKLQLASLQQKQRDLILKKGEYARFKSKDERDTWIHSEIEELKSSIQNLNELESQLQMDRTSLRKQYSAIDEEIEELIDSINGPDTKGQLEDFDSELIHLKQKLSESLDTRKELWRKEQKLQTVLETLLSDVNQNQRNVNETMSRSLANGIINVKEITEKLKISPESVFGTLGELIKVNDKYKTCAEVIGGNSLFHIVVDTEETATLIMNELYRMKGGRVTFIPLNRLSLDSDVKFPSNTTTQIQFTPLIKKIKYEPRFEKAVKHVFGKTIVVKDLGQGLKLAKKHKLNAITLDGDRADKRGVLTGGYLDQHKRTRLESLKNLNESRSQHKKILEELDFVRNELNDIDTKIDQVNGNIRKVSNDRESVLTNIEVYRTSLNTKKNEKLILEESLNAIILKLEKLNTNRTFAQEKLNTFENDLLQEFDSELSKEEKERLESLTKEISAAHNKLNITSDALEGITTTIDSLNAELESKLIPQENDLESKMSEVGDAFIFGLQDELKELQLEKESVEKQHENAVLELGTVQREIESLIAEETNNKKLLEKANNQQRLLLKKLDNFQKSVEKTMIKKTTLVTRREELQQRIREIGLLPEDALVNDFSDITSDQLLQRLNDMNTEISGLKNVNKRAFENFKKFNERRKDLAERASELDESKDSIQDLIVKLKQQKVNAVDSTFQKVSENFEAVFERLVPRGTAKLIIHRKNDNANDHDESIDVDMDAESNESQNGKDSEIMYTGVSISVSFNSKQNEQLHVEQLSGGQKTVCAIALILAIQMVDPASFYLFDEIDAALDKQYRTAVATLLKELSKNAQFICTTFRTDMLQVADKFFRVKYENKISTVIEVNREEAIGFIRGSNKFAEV
T1 sequence (Q12158 1-566 partner): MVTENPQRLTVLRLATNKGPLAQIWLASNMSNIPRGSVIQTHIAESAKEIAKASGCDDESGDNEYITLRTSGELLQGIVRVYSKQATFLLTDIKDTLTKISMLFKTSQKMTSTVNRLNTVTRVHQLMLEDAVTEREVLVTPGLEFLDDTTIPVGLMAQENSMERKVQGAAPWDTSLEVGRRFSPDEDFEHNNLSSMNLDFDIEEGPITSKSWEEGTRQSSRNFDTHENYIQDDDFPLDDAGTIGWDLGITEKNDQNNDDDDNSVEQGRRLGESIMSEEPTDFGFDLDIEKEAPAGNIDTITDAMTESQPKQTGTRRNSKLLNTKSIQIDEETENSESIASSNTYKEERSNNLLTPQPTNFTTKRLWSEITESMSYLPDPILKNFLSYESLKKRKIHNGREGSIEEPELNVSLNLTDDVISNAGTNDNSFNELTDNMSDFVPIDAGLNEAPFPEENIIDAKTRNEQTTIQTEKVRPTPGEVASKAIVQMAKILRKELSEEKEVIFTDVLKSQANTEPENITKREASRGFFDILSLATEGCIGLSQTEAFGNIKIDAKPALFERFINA
In words: microscale thermophoresis. It is filed as binding. The settings on record: fluorescently labelled protein; Smc1 co-purified with Scc1-C, plus Smc3; read-out: affinity. An excerpt:
microscale thermophoresis on Smc1/Smc3 heterodimer with Scc1-C (cohesin) | Smc1 L1129V, D1164E and E1158Q mutants all had wild-type-like affinity to both ATP and ADP | wild-type and mutant cohesin complexes appear to have similar affinities to ADP

A value given as a limit tells only on which side of the number the result lay.

`Nc1ncnc2c1ncn2[C@@H]1O[C@H](COP(=O)(O)OP(=O)(O)OP(=O)(O)O)[C@@H](O)[C@H]1O` [ATP]: the Kd was 667 ± 211 µM.
In the case of `Nc1ncnc2c1ncn2[C@@H]1O[C@H](COP(=O)(O)OP(=O)(O)O)[C@@H](O)[C@H]1O` [ADP] it was above 1000 µM.
